Measurements published in ChEMBL document CHEMBL6092217 (Eur J Med Chem, 2024).

Experiments:
HT-29 [1] = experiment: Induction of cell cycle arrest in human HT-29 cells assessed as accumulation of cells at G1 phase at 10 nM incubated for 24 hrs by flow cytometry analysis (reference value: 67.6%); assay type: functional
RKO = experiment: Antiproliferative activity against human RKO cells assessed as cell viability incubated for 72 hrs by MTT assay; assay type: functional, cell-based
HT-29 [2] = experiment: Induction of cell cycle arrest in human HT-29 cells assessed as accumulation of cells at G2 phase at 10 nM incubated for 24 hrs by flow cytometry analysis (reference value: 13 %); assay type: functional
HT-29 [3] = experiment: Induction of cell cycle arrest in human HT-29 cells assessed as accumulation of cells at S phase at 10 nM incubated for 24 hrs by flow cytometry analysis (reference value: 20.8 %); assay type: functional
HT-29 [4] = experiment: Induction of apoptosis in human HT-29 cells assessed as necrotic cells at 20 nM incubated for 24 hrs by FITC/PI staining based flow cytometry analysis (reference value: 0.017 %); assay type: functional
HT-29 [5] = experiment: Induction of apoptosis in human HT-29 cells assessed as viable cells at 20 nM incubated for 24 hrs by FITC/PI staining based flow cytometry analysis (reference value: 91.6%); assay type: functional; settings: read-out: Activity
[6] = Resistance index, ratio of IC50 for human A549/TxR cells to IC50 for human A549 cells; assay type: functional
MCF7 = experiment: Antiproliferative activity against human MCF7 cells assessed as cell viability incubated for 72 hrs by MTT assay; assay type: functional, cell-based; settings: MCF7, 72 h
HT-29 [7] = experiment: Antiproliferative activity against human HT-29 cells assessed as cell viability incubated for 72 hrs by MTT assay; assay type: functional, cell-based; settings: HT-29, 72 h
HT-29 [8] = experiment: Induction of apoptosis in human HT-29 cells assessed as early apoptotic cells at 20 nM incubated for 24 hrs by FITC/PI staining based flow cytometry analysis (reference value: 8.14%); assay type: functional
HepG2 = experiment: Antiproliferative activity against human HepG2 cells assessed as cell viability incubated for 72 hrs by MTT assay; assay type: functional, cell-based; settings: HepG2, 72 h
MDA-MB-231 = experiment: cells; settings: Homo sapiens, MDA-MB-231, 72 h
Description: Antiproliferative activity against human MDA-MB-231 cells assessed as cell viability incubated for 72 hrs by MTT assay

HT-29 [9] = experiment: Induction of apoptosis in human HT-29 cells assessed as late apoptotic cells at 20 nM incubated for 24 hrs by FITC/PI staining based flow cytometry analysis (reference value: 0.20%); assay type: functional
PC-3 = experiment: Antiproliferative activity against human PC-3 cells assessed as cell viability incubated for 72 hrs by MTT assay; assay type: functional, cell-based; settings: PC-3, 72 h

- IC50 (MCF7): 37 nM
- IC50 (HT-29 [7]): 13 nM
- IC50 (HepG2): 36 nM
- IC50 (MDA-MB-231): 22 nM
- IC50 (PC-3): 28 nM
SMILES: CC(=O)O[C@H]1C(=O)[C@@]2(C)[C@H]([C@H](OC(=O)c3ccccc3)[C@]3(O)C[C@H](OC(=O)[C@H](O)[C@@H](NC(=O)c4ccccc4)c4ccccc4)C(C)=C1C3(C)C)[C@]1(OC(C)=O)CO[C@@H]1C[C@@H]2O [PACLITAXEL]
- Activity (HT-29 [1]): 60.2%
- IC50 (RKO): 3 nM
- Activity (HT-29 [2]): 22.6%
- Activity (HT-29 [3]): 15.1%
- Activity (HT-29 [4]): 1.32%
- viability at 0.02 µM (HT-29 [5]): 70.6%
- Ratio IC50 [6]: 11.29
- Activity (HT-29 [8]): 5.4%
- Activity (HT-29 [9]): 22.7%
